Source: US20250230193A1, “CYCLIC COMPOUND HAVING SELECTIVE KRAS INHIBITORY EFFECT ON HRAS AND NRAS” (CHUGAI SEIYAKU KABUSHIKI KAISHA, priority 2022, published 2025)
Where a SMILES comes first, the peptide text is derived from it. Bridges are numbered along the chain shown (N, C = ends). [ ]: non-standard residue; d: D form. The star is where a group is joined. hPhe(3,5-F2-4-CF3) = N[C@@H](CCc1cc(F)c(C(F)(F)F)c(F)c1)C(=O)O; NPrPhe(4-CF3) = CCCN[C@@H](Cc1ccc(C(F)(F)F)cc1)C(=O)O; NMeGly(cPent) = CN[C@H](C(=O)O)C1CCCC1; NMeD = CN[C@@H](CC(=O)O)C(=O)O; NMeL = CN[C@@H](CC(C)C)C(=O)O; Iva = CC[C@](C)(N)C(=O)O; Morpholide = C1CN(*)CCO1; Sar = CNCC(=O)O

Experiments:
[1] = molecular target: GDP-bound NRAS wild-type protein (Homo sapiens, UniProt P01111); assay: Binding to NRAS by surface plasmon resonance (SPR), Single Cycle Kinetics; settings: for NRAS/KRAS (ratio of KD value for NRAS to KD value for KRAS) / NRAS/KRAS (ratio of KD value with respect to NRAS to KD value with respect to KRAS): GDP-bound NRAS wild-type vs GDP-bound KRAS wild-type
[2] = molecular target: GDP-bound HRAS wild-type protein (Homo sapiens, UniProt P01112); assay: Binding to HRAS by surface plasmon resonance (SPR), Single Cycle Kinetics; settings: for HRAS/KRAS (ratio of KD value for HRAS to KD value for KRAS) / HRAS/KRAS (ratio of KD value with respect to HRAS to KD value with respect to KRAS): GDP-bound HRAS wild-type vs GDP-bound KRAS wild-type
GDP-bound HRAS wild-type protein, sequence (P01112 whole entry): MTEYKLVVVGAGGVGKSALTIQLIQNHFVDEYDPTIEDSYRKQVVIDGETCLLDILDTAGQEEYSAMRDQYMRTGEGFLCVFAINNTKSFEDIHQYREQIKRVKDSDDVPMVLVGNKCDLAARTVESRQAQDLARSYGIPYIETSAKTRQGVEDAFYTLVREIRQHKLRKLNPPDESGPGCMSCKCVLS

GDP-bound NRAS wild-type protein, sequence (P01111 whole entry): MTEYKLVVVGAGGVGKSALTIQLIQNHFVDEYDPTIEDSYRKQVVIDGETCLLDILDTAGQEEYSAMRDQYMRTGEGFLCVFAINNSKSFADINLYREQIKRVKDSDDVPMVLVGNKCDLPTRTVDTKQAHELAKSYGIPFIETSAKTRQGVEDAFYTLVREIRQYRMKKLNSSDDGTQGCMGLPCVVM

Structure (SMILES): CC[C@H](C)[C@@H]1NC(=O)[C@H](COC)N(C)C(=O)C[C@@H](C(=O)N(C)C)N(C)C(=O)[C@H](C2CCCCC2)N(C)C(=O)C2(CC(C)(C)C2)NC(=O)[C@@H]2C[C@@H](OC(C)C)CN2C(=O)[C@H](CCc2ccc(Cl)c(Cl)c2)NC(=O)CN(C)C(=O)[C@H](Cc2ccc(C(F)(F)F)cc2)N2CC/C=C\C[C@@H](C2=O)N(C)C(=O)CN(C)C1=O [PP2662]
- NRAS/KRAS (ratio of KD value with respect to GDP-bound NRAS wild-type protein to KD value with respect to KRAS) ([1]; class symbols): AA (a compound having 20 or more is denoted as AA)
- HRAS/KRAS (ratio of KD value with respect to GDP-bound HRAS wild-type protein to KD value with respect to KRAS) ([2]; class symbols): A (a compound having 10 or more and less than 20 is denoted as A)

Structure (SMILES): CCO[C@@H]1C[C@H]2C(=O)NC3(CCC3)C(=O)N(C)[C@@H](C3CCCC3)C(=O)N(C)[C@H](C(=O)N(CC)CC)CC(=O)N(C)[C@@H](CC(F)F)C(=O)N[C@@H]([C@@H](C)CC)C(=O)N(C)CC(=O)N(C)[C@H]3C/C=C\CCN(C3=O)[C@@H](Cc3ccc(C(F)(F)F)cc3)C(=O)N(C)CC(=O)N[C@@H](CCc3cc(F)c(C(F)(F)F)c(F)c3)C(=O)N2C1 [PP1309]
- NRAS/KRAS (ratio of KD value for GDP-bound NRAS wild-type protein to KD value for KRAS) ([1]; SPR, KD ratio class): A (a compound having 10 or more and less than 20 is denoted as A)
- HRAS/KRAS (ratio of KD value for GDP-bound HRAS wild-type protein to KD value for KRAS) ([2]; SPR, KD ratio class): A (a compound having 10 or more and less than 20 is denoted as A)

Structure (SMILES): CCCN1C(=O)CN(C)C(=O)CN(C)C(=O)[C@H]([C@@H](C)CC)NC(=O)[C@H](CC(C)C)N(C)C(=O)C[C@@H](C(=O)N2CCOCC2)N(C)C(=O)[C@H](C2CCCC2)N(C)C(=O)[C@](C)(CC)NC(=O)[C@@H]2CCCN2C(=O)[C@H](CCc2cc(F)c(C(F)(F)F)c(F)c2)NC(=O)CN(C)C(=O)[C@@H]1Cc1ccc(C(F)(F)F)cc1 [PP0754] ([NMeL]I[Sar][Sar][NPrPhe(4-CF3)][Sar][hPhe(3,5-F2-4-CF3)]P[Iva][NMeGly(cPent)][NMeD]-Morpholide; lactam N-11)
- NRAS/KRAS (ratio of KD value with respect to GDP-bound NRAS wild-type protein to KD value with respect to KRAS) ([1]; SPR): B (a compound having 3 or more and less than 10 is denoted as B)
- HRAS/KRAS (ratio of KD value with respect to GDP-bound HRAS wild-type protein to KD value with respect to KRAS) ([2]; SPR): C (A compound having a KD ratio of 0.1 or more and less than 3 is denoted as C)

Structure (SMILES): CCO[C@@H]1C[C@H]2C(=O)NC3(CCC3)C(=O)N(C)[C@@H](C3CCCC3)C(=O)N(C)[C@H](C(=O)N(C)CC)CC(=O)N(C)[C@@H](CC)C(=O)N[C@@H]([C@@H](C)CC)C(=O)N(C)CC(=O)N(C)[C@H]3C/C=C\CCN(C3=O)[C@@H](Cc3ccc(C)cc3)C(=O)N(C)CC(=O)N[C@@H](CCc3ccc(C(F)(F)F)c(OC)c3)C(=O)N2C1 [PP1869]
- NRAS/KRAS (ratio of KD value for NRAS to KD value for KRAS) ([1]; SPR): A (a compound having 10 or more and less than 20 is denoted as A)
- HRAS/KRAS (ratio of KD value for HRAS to KD value for KRAS) ([2]; SPR): A (a compound having 10 or more and less than 20 is denoted as A)

Structure (SMILES): CCC[C@H]1C(=O)N[C@@H]([C@@H](C)CC)C(=O)N(C)CC(=O)N(C)[C@H]2C/C=C\CCN(C2=O)[C@@H](CC2CCC(F)(F)CC2)C(=O)N(C)CC(=O)N[C@@H](CCc2ccc(C(F)(F)F)c(OC)c2)C(=O)N2C[C@H](OCC)C[C@H]2C(=O)N(C)C2(CCC2)C(=O)N(C)[C@@H](C(CC)CC)C(=O)N(C)[C@H](C(=O)N(C)C)CC(=O)N1C [PP2345]
- NRAS/KRAS (ratio of KD value with respect to NRAS to KD value with respect to KRAS) ([1]; SPR): A (a compound having 10 or more and less than 20 is denoted as A)
- HRAS/KRAS (ratio of KD value with respect to HRAS to KD value with respect to KRAS) ([2]; SPR): A (a compound having 10 or more and less than 20 is denoted as A)

Structure (SMILES): CCO[C@@H]1C[C@H]2C(=O)NC3(CC(C)(C)C3)C(=O)N(C)[C@@H](C3CCCC3)C(=O)N(C)[C@H](CC)CC(=O)N(C)[C@@H](CC)C(=O)N[C@@H]([C@@H](C)CC)C(=O)N(C)CC(=O)N(C)[C@H]3C/C=C\CCN(C3=O)[C@@H](Cc3ccc(C(F)(F)F)cc3)C(=O)N(C)CC(=O)N[C@@H](CCc3cc(F)c(C(F)(F)F)c(F)c3)C(=O)N2C1 [PP1623]
- NRAS/KRAS (ratio of KD value for NRAS to KD value for KRAS) ([1]; SPR): A (a compound having 10 or more and less than 20 is denoted as A)
- HRAS/KRAS (ratio of KD value for HRAS to KD value for KRAS) ([2]; SPR): A (a compound having 10 or more and less than 20 is denoted as A)

Structure (SMILES): CCC[C@H]1C(=O)N[C@@H]([C@@H](C)CC)C(=O)N(C2CC2)CC(=O)N(C)[C@H]2C/C=C\CCN(C2=O)[C@@H](Cc2ccc(C)cc2)C(=O)N(C)CC(=O)N[C@@H](CCc2ccc(C(F)(F)F)c(OC)c2)C(=O)N2C[C@H](OCC)C[C@H]2C(=O)NC2(CC(C)(C)C2)C(=O)N(C)[C@@H](C2CCCC2)C(=O)N(C)[C@H](C(=O)N(C)C)CC(=O)N1C [PP2097]
- NRAS/KRAS (ratio of KD value with respect to NRAS to KD value with respect to KRAS) ([1]; SPR): A (a compound having 10 or more and less than 20 is denoted as A)
- HRAS/KRAS (ratio of KD value with respect to HRAS to KD value with respect to KRAS) ([2]; SPR): A (a compound having 10 or more and less than 20 is denoted as A)
